Source: ChEMBL document CHEMBL1201862, “PubChem BioAssay data set” (2004)
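Cultured in 96-well plates, cells were exposed to test compound for 48 hours across five concentrations. The concentration for 50% growth inhibition is given as GI50.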 Calls of active or inactive are those of the source. Rule as the data show it: active = GI50 up to about 1.1 µM and inactive = higher.

Tests used:
Assay in all cases: DTP human tumour cell line panel, 48 h
786-0 = tested on: 786-0
A549 = tested on: A549
EKVX = tested on: EKVX
HOP-62 = tested on: HOP-62
M14 = tested on: M14
NCI-H460 = tested on: NCI-H460
NCI-H522 = tested on: NCI-H522
RPMI-8226 = tested on: RPMI-8226
RXF 393 = tested on: RXF 393
SK-MEL-28 = tested on: SK-MEL-28
SK-OV-3 = tested on: SK-OV-3
SNB-19 = tested on: SNB-19
UO-31 = tested on: UO-31
OVCAR-3 = tested on: OVCAR-3
SNB-75 = tested on: SNB-75

Measured: GI50

Cn1nc(-c2ccccc2)c(C(=O)/C=C/c2ccc(Cl)cc2)c(N2CCCC2)c1=O
inactive: 786-0 3.13 µM | A549 4.36 µM | EKVX 11.7 µM | HOP-62 2.23 µM | M14 5.33 µM | NCI-H460 3.86 µM | NCI-H522 2.07 µM | RPMI-8226 2.7 µM | RXF 393 2.63 µM | SK-MEL-28 3.76 µM | SK-OV-3 4.99 µM | SNB-19 10 µM | UO-31 8.51 µM

[N-]=[N+]=Nc1ncnc2c1sc(=S)n2-c1ccccc1
inactive: 786-0 > 100 µM | A549 > 100 µM | EKVX > 100 µM | HOP-62 21.6 µM | M14 > 100 µM | NCI-H460 > 100 µM | NCI-H522 > 100 µM | OVCAR-3 > 100 µM | RPMI-8226 > 100 µM | RXF 393 > 100 µM | SK-MEL-28 > 100 µM | SK-OV-3 > 100 µM | SNB-19 > 100 µM | SNB-75 > 100 µM | UO-31 > 100 µM

COC1(C)CNCC(C)(C)NC(=O)C(C)(OC)CNCC(C)(C)NC1=O (stereo not drawn)
inactive: 786-0 > 100 µM | A549 > 100 µM | EKVX > 100 µM | HOP-62 > 100 µM | M14 > 100 µM | NCI-H460 > 100 µM | NCI-H522 > 100 µM | OVCAR-3 > 100 µM | RPMI-8226 > 100 µM | RXF 393 > 100 µM | SK-MEL-28 > 100 µM | SK-OV-3 > 100 µM | SNB-19 > 100 µM | SNB-75 > 100 µM | UO-31 > 100 µM

C=CN1C(=O)[C@H](Oc2ccccc2)[C@@H]1c1ccccc1
inactive: 786-0 18.9 µM | A549 26.8 µM | EKVX 47.8 µM | HOP-62 32.7 µM | M14 33.1 µM | NCI-H460 30.3 µM | NCI-H522 32.6 µM | RPMI-8226 20.3 µM | RXF 393 17.8 µM | SK-MEL-28 36.4 µM | SK-OV-3 32.1 µM | SNB-19 33.6 µM | SNB-75 15.6 µM | UO-31 36.3 µM

Cc1ccc(NC(=O)CCc2n[nH]c(=S)o2)cc1
inactive: 786-0 > 100 µM | A549 > 100 µM | EKVX > 100 µM | HOP-62 > 100 µM | M14 > 100 µM | NCI-H460 > 100 µM | NCI-H522 > 100 µM | OVCAR-3 > 100 µM | RXF 393 > 100 µM | SK-MEL-28 > 100 µM | SNB-19 > 100 µM | SNB-75 > 100 µM | UO-31 > 100 µM

CCN(CC)c1ccc(/N=N/c2ccc(-c3nc4cccnc4s3)cc2)cc1
inactive: 786-0 45.4 µM | A549 88.7 µM | EKVX > 100 µM | HOP-62 > 100 µM | M14 > 100 µM | NCI-H460 60.3 µM | NCI-H522 > 100 µM | OVCAR-3 > 100 µM | RPMI-8226 > 100 µM | SK-MEL-28 > 100 µM | SK-OV-3 > 100 µM | SNB-19 > 100 µM | SNB-75 32.8 µM | UO-31 > 100 µM

CN(C)CC/C(=N\Nc1ccc(Cl)cc1Cl)c1ccccc1
inactive: 786-0 13.7 µM | A549 15 µM | EKVX 20.6 µM | HOP-62 13.9 µM | M14 15.5 µM | NCI-H460 13.8 µM | NCI-H522 > 10 µM | OVCAR-3 14 µM | RPMI-8226 3.94 µM | RXF 393 7.96 µM | SK-MEL-28 15.2 µM | SK-OV-3 12.3 µM | SNB-19 16.1 µM | SNB-75 7.74 µM | UO-31 2.37 µM

N#CCCCCCOCCOCCOCCOCCOCCCCCC#N
inactive: 786-0 > 100 µM | A549 > 100 µM | EKVX > 100 µM | HOP-62 > 100 µM | M14 > 100 µM | NCI-H460 > 100 µM | NCI-H522 > 100 µM | OVCAR-3 97.7 µM | RXF 393 > 100 µM | SK-MEL-28 > 100 µM | SK-OV-3 > 100 µM | SNB-19 > 100 µM | SNB-75 > 100 µM | UO-31 > 100 µM

Cn1c(=O)c(C(=O)NC(=O)NCCCCCOC(=O)CCCCCCCCCCC(=O)OCCCCCNC(=O)NC(=O)c2cn(Cc3ccccc3)c(=O)n(C)c2=O)cn(Cc2ccccc2)c1=O
inactive: 786-0 > 100 µM | A549 > 100 µM | EKVX > 100 µM | HOP-62 > 100 µM | M14 > 100 µM | NCI-H460 > 100 µM | NCI-H522 > 100 µM | OVCAR-3 > 100 µM | RPMI-8226 > 100 µM | RXF 393 > 100 µM | SK-MEL-28 > 100 µM | SK-OV-3 > 100 µM | SNB-19 > 100 µM | SNB-75 > 100 µM | UO-31 > 100 µM
